Experimental data published in the supplement of paper PMC10627819.

What was measured:
[1] = system: B. subtilis 168; test: fitness (endpoint OD595 vs no drug) (fraction); higher = more growth
Summary of the method: (§1)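 At 37 °C, bacteria in TSB, LB Lennox or CY were grown in 384-well plates from a starting OD595 of 0.01. OD595 was measured every 30 min for 14 h, with the first reading used as background. Fitness is the optical density at the switch to stationary phase as a fraction of the robust mean of no-drug control wells, capped at 1.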

[2] = system: S. aureus DSM 20231; test: as above
Summary of the method: as §1

[3] = system: S. aureus Newman; test: as above
Summary of the method: as §1

[4] = system: B. subtilis 168; test: Bliss interaction score (quartile over a dose matrix) (fitness difference); higher = more antagonism (negative = synergy)
Summary of the method: (§2)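 Values were capped at 1 after dividing OD595 at stationary-phase entry by the plate's robust no-drug mean. This ratio is fitness, and single-drug fitness was inferred from the combination data. The Bliss score is observed minus product-expected fitness, given as quartiles over technical, biological and donor/recipient replicates.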

[5] = system: S. aureus DSM 20231; test: as above
Summary of the method: as §2

[6] = system: S. aureus Newman; test: as above
Summary of the method: as §2

[7] = system: S. pneumoniae D39V; test: as above
Summary of the method: as §2

[8] = system: S. pneumoniae D39V; test: fitness (endpoint OD595 vs no drug) (fraction); higher = more growth
Summary of the method: as §1
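Wherever Bliss interaction score (quartile over a dose matrix) is given: first quartile when negative (synergy) and third quartile when positive (antagonism).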

CC[C@H]1OC(=O)[C@H](C)[C@@H](O[C@H]2C[C@@](C)(OC)[C@@H](O)[C@H](C)O2)[C@H](C)[C@@H](O[C@@H]2O[C@H](C)C[C@H](N(C)C)[C@H]2O)[C@](C)(O)C[C@@H](C)CN(C)[C@H](C)[C@@H](O)[C@]1(C)O [Azithromycin] + O=C(O[C@@H]1Cc2c(O)cc(O)cc2O[C@@H]1c1cc(O)c(O)c(O)c1)c1cc(O)c(O)c(O)c1 [EGCG]
fitness
Details | partner 6.25 µg/mL | partner 12.5 µg/mL | partner 25 µg/mL | partner 50 µg/mL
[1], first compound 0.25 µg/mL | 0.859 | 0.508 | 0.246 | –
[1], first compound 0.5 µg/mL | 0.912 | 0.461 | – | –
[1], first compound 1 µg/mL | – | – | 0.0462 | –
[2], first compound 0.125 µg/mL | – | 0.703 | 0.693 | 0.614
[2], first compound 0.25 µg/mL | – | 0.761 | 0.695 | –
[3], first compound 0.125 µg/mL | – | 0.759 | 0.706 | 0.696
[3], first compound 0.25 µg/mL | – | 0.726 | 0.715 | 0.658
[3], first compound 0.5 µg/mL | – | 0.545 | 0.522 | 0.484

[1], first compound 2 µg/mL, one replicate
Details | fitness
partner 6.25 µg/mL | 0.387
partner 12.5 µg/mL | 0.229
partner 25 µg/mL | 0.201

Details | Bliss interaction score
[4] | -0.0827
[5] | -0.13
[6] | -0.0553
[7] | 0.043

Cc1onc(-c2ccccc2)c1C(=O)N[C@@H]1C(=O)N2[C@@H]1SC(C)(C)[C@@H]2C(=O)O [Oxacillin] + CC1=C\[C@@H](O)CC(=O)Cc2nc(co2)C(=O)N2CCC=C2C(=O)O[C@H](C(C)C)[C@H](C)/C=C/C(=O)NC\C=C\1 [Virginiamycin M1]
Details | fitness
[1], first compound 0.002 µg/mL, partner 0.0625 µg/mL | 0.993
[1], first compound 0.002 µg/mL, partner 0.125 µg/mL | 0.954
[1], first compound 0.002 µg/mL, partner 0.25 µg/mL | 0.977
[1], first compound 0.004 µg/mL, partner 0.0625 µg/mL | 0.98
[1], first compound 0.004 µg/mL, partner 0.125 µg/mL | 0.941
[1], first compound 0.004 µg/mL, partner 0.25 µg/mL | 0.973
[1], first compound 0.008 µg/mL, partner 0.0625 µg/mL | 0.962
[1], first compound 0.008 µg/mL, partner 0.125 µg/mL | 0.905
[1], first compound 0.008 µg/mL, partner 0.25 µg/mL | 0.962
[2], first compound 0.0156 µg/mL, partner 0.0625 µg/mL | 0.803
[2], first compound 0.0156 µg/mL, partner 0.125 µg/mL | 0.808
[2], first compound 0.0156 µg/mL, partner 0.25 µg/mL | 0.775
[2], first compound 0.0312 µg/mL, partner 0.0625 µg/mL | 0.61
[2], first compound 0.0312 µg/mL, partner 0.125 µg/mL | 0.686
[2], first compound 0.0312 µg/mL, partner 0.25 µg/mL | 0.628
[2], first compound 0.0625 µg/mL, partner 0.0625 µg/mL | 0.492
[2], first compound 0.0625 µg/mL, partner 0.125 µg/mL | 0.514
[2], first compound 0.0625 µg/mL, partner 0.25 µg/mL | 0.545
[3], first compound 0.0156 µg/mL, partner 0.0625 µg/mL | 0.755
[3], first compound 0.0156 µg/mL, partner 0.125 µg/mL | 0.761
[3], first compound 0.0156 µg/mL, partner 0.25 µg/mL | 0.763
[3], first compound 0.0312 µg/mL, partner 0.0625 µg/mL | 0.71
[3], first compound 0.0312 µg/mL, partner 0.125 µg/mL | 0.709
[3], first compound 0.0312 µg/mL, partner 0.25 µg/mL | 0.694
[3], first compound 0.0625 µg/mL, partner 0.0625 µg/mL | 0.622
[3], first compound 0.0625 µg/mL, partner 0.125 µg/mL | 0.623
[3], first compound 0.0625 µg/mL, partner 0.25 µg/mL | 0.643
[8], first compound 0.01 µg/mL, partner 0.5 µg/mL | 0.986
[8], first compound 0.01 µg/mL, partner 1 µg/mL | 0.98
[8], first compound 0.01 µg/mL, partner 2 µg/mL | 0.961
[8], first compound 0.02 µg/mL, partner 0.5 µg/mL | 0.964
[8], first compound 0.02 µg/mL, partner 1 µg/mL | 0.965
[8], first compound 0.02 µg/mL, partner 2 µg/mL | 0.913
[8], first compound 0.04 µg/mL, partner 0.5 µg/mL | 0.539
[8], first compound 0.04 µg/mL, partner 1 µg/mL | 0.568

one replicate
Details | fitness
[1], first compound 0.075 µg/mL, partner 0.0625 µg/mL | 0.461
[1], first compound 0.075 µg/mL, partner 0.125 µg/mL | 0.639
[1], first compound 0.075 µg/mL, partner 0.25 µg/mL | 0.53
[1], first compound 0.15 µg/mL, partner 0.0625 µg/mL | 0.0434
[1], first compound 0.15 µg/mL, partner 0.125 µg/mL | 0.0511
[1], first compound 0.15 µg/mL, partner 0.25 µg/mL | 0.0511
[1], first compound 0.3 µg/mL, partner 0.0625 µg/mL | 0.04
[1], first compound 0.3 µg/mL, partner 0.125 µg/mL | 0.0604
[1], first compound 0.3 µg/mL, partner 0.25 µg/mL | 0.0635
[2], first compound 0.0156 µg/mL, partner 0.5 µg/mL | 0.835
[2], first compound 0.0156 µg/mL, partner 1 µg/mL | 0.903
[2], first compound 0.0312 µg/mL, partner 0.5 µg/mL | 0.719
[2], first compound 0.0312 µg/mL, partner 1 µg/mL | 0.746
[2], first compound 0.0625 µg/mL, partner 0.5 µg/mL | 0.517
[2], first compound 0.0625 µg/mL, partner 1 µg/mL | 0.64
[3], first compound 0.0156 µg/mL, partner 0.5 µg/mL | 0.815
[3], first compound 0.0156 µg/mL, partner 1 µg/mL | 0.882
[3], first compound 0.0156 µg/mL, partner 2 µg/mL | 0.843
[3], first compound 0.0312 µg/mL, partner 0.5 µg/mL | 0.752
[3], first compound 0.0312 µg/mL, partner 1 µg/mL | 0.78
[3], first compound 0.0312 µg/mL, partner 2 µg/mL | 0.723
[3], first compound 0.0625 µg/mL, partner 0.5 µg/mL | 0.597
[3], first compound 0.0625 µg/mL, partner 1 µg/mL | 0.671
[3], first compound 0.0625 µg/mL, partner 2 µg/mL | 0.676
[8], first compound 0.01 µg/mL, partner 0.15 µg/mL | ≥ 1
[8], first compound 0.01 µg/mL, partner 0.3 µg/mL | ≥ 1
[8], first compound 0.02 µg/mL, partner 0.15 µg/mL | ≥ 1
[8], first compound 0.02 µg/mL, partner 0.3 µg/mL | ≥ 1
[8], first compound 0.04 µg/mL, partner 0.15 µg/mL | 0.994
[8], first compound 0.04 µg/mL, partner 0.3 µg/mL | 0.989

Details | Bliss interaction score
[4] | 0.0548
[5] | -0.0341
[6] | 0.0583
[7] | 0.114
